Test results from article PMC11200585, “Prospects for Prostate Cancer Chemotherapy: Cytotoxic Evaluation and Mechanistic Insights of Quinolinequinones with ADME/PK Profile” (Biomedicines, 2024).

Columns and labels:
DU-145 cells [1] = test: MTT assay; type: cell-based; details: Homo sapiens, 24 h, mean ± SEM
Protocol: (§1) For the MTT assay, DU-145, MDA-MB-231, HCT-116, and HUVEC cells (American Type Culture Collection) were seeded at a concentration of 1 × 10^4 cells per well in 96-well plates and allowed to incubate overnight, ensuring proper adherence. Subsequently, a series of concentrations for both AQQ1 and AQQ2 (ranging from 1 to 100 µM) were added to the culture medium with a final concentration of 1% DMSO, and cells were subjected to an additional 24 h incubation period. The control group only received 1% DMSO (Biomatik, Cambridge, ON, Canada). To establish a baseline for comparison, DOXO (Saba, İstanbul, Turkey), a known chemotherapeutic agent, was administered at equivalent concentrations. Following the incubation period, MTT (3-(4,5-dimethylthiazol-2-yl)-2,5-diphenyltetrazolium bromide) (Biomatik, Canada) assay was carried out to assess cell viability. Finally, the absorbance was quantified at 590 nm using a BioTek Epoc plate reader (Biotek, Winooski, VT, USA). The derived data were analysed using GraphPad Prism 8 software to calculate the inhibitory concentration 50 (IC50) values of the test compounds.

[2] = test system: Human Umbilical Vein Endothelial Cells (HUVEC); test: MTT assay; type: cell-based; details: 24 h, mean ± SEM
Protocol: as §1

MDA-MB-231 cells = test: MTT assay; type: cell-based; details: Homo sapiens, 24 h, mean ± SEM
Protocol: as §1

DU-145 cells [3] = test: Scratch assay (cell migration); type: cell-based; details: Homo sapiens, 24 h, read-out: DU-145 cell migration inhibited
Protocol: DU-145 cells were grown in 6-well plates until they reached confluence. A straight-line scratch was then carefully created in the cell layer using a sterile pipette tip. The medium was replaced to remove any detached cells. The cells were treated with varying concentrations of AQQ1 (1, 2.5, and 5 µM) along with negative control for 24 h and the cells were allowed to migrate into the denuded area. The brightfield images were taken under the microscope at 0 h and over 24 h. The extent of wound closure is quantified by measuring the change in the width of the scratch with Fiji Image J wound healing size macro [20].

DU-145 cells [4] = test: Colony formation assay; type: cell-based, human; details: 24 h treatment, 10 days growth
Protocol: DU-145 cells were seeded in 6-well plates at a density of 1000 cells/well and allowed to incubate overnight. Then, the cells were treated with varying concentrations of AQQ1 (1, 2.5, and 5 µM) along with negative control and 2.5 µM DOXO for 24 h. After a medium refreshment, the cells were allowed to grow for 10 days. After incubation, the colonies are fixed with cold methanol for 5 min and then stained with a 0.5% crystal violet solution (prepared in 10% methanol) for 20 min. The plates were allowed to air-dry and the colonies were counted manually.

DU-145 cells [5] = test: Apoptosis necrosis analysis (Annexin V-FITC / PI flow cytometry); type: cell-based, human; details: 1, 2.5, 5 µM, 24 h
Protocol: To assess cellular apoptosis and necrosis, a fluorochrome-labelled Annexin V (FITC) and Propidium Iodide (PI) staining kit (SONY Biotechnology, San Jose, CA, USA) was used according to the manufacturer’s protocol. DU-145 cells were initially seeded at a density of 1 × 10^6 cells per well in 6-well plates. After an incubation period, the cells were treated with varying concentrations of AQQ1 (1, 2.5, and 5 µM) along with negative control for 24 h. Then, the cells were detached using trypsin and then suspended in 500 µL of 1× Binding Buffer. Subsequently, 3 µL of Propidium Iodide (PI) and 5 µL of Annexin V-FITC were added to the cell suspension, followed by a 15 min incubation at room temperature in the dark. Post-incubation, cell analysis was performed via flow cytometry using the BD FACS Calibur Flow Cytometry System. The percentages of apoptotic and necrotic cells were determined using BD CellQuest Pro Software version 5.1 (both from Becton Dickinson, Sunnyvale, CA, USA).

DU-145 cells [6] = test: Oxidative stress: intracellular ROS (DCFDA, flow cytometry); type: cell-based, human; details: 1, 2.5, 5 µM, 24 h
Protocol: DU-145 cells were initially seeded at a density of 1 × 10^6 cells per well in 6-well plates. Cells were subjected to AQQ1 treatments as described earlier. After an incubation period, the cells were treated with varying concentrations of AQQ1 (1, 2.5, and 5 µM) for 24 h. ROS analysis was carried out using the DCFDA oxidation method according to Eruslanov and Kusmartsev with some modifications. For positive control, the cells were exposed to 100 µM H2O2 for 30 min. Then, the medium was discarded, 20 µM DCDFA (Sigma-Aldrich, USA) in culture medium was added to the wells, and plates were incubated for 15 min in the dark. The cells were analysed with NovoCyte (Agilent, Palo Alto, CA, USA) flow cytometry using NovoExpress version 1.6.2 software (Agilent, USA).

[7] = In vitro metabolic stability; type: in vitro ADME, rat (Sprague-Dawley); details: Rat liver microsomes; for % Metabolism in 30 min: 0.5 µM, 0.5 mg/mL protein; for half-life at 0.5 µM / microsomal CLint at 0.5 µM: male, Sprague-Dawley, pH 7.4
Protocol: S2. ADME and PK Profiling
S2.1. In vitro Metabolic Stability Study […]
metabolic stability of AQQ1 and AQQ2. A final protein (liver microsomal) concentration of 0.5 mg/mL and final test substance (AQQ1 and AQQ2) concentration of 0.5 µM were used for the study. To the respective microsomes at a volume of 12.5 µL in the well, 2.5 µL of test substance ([…] in acetonitrile: dimethyl sulfoxide, 96:4) in the presence and absence of NADPH (50 µL, 10 mM) were added and the final volume made up to 500 µL with sodium phosphate buffer (50 mM, pH 7.4). The one without NADPH served as control. Sampling (50 µL) were done at the following time points: 0, 5, 10, 15, and 30 min for sample and at 0 and 30 min for control.
Acetonitrile (150 µL) was used as quenching solvent, internal standard (Rolipram) was added, vortexed/centrifuged and the aliquot from the supernatant was analyzed using LC-MS/MS. All the experiments were performed in duplicate.

M14 = test: NCI-60 one-dose screen (melanoma); type: cell-based, human; details: 10 µM single dose, 48 h

SMILES	IC50 (DU-145 cells [1]) [µM]	IC50 [2] [µM]	IC50 (MDA-MB-231 cells) [µM]	inhibition at 1 µM (DU-145 cells [3]; 1 μM) [%]	inhibition at 2.5 µM (DU-145 cells [3]; 2.5 μM) [%]	inhibition at 5 µM (DU-145 cells [3]; 5 μM) [%]	colony-forming ability (DU-145 cells [4])	live and necrotic cell counts (DU-145 cells [5])	intracellular ROS levels (DU-145 cells [6])	% Metabolism in 30 min [7] [%]	half-life at 0.5 µM [7] [min]	microsomal CLint at 0.5 µM [7] [µL/min/mg]	GP (growth percentage) (M14) [%]
COc1ccccc1NC1=C(Cl)C(=O)c2nc(C)ccc2C1=O [AQQ1]	4.18 ± 0.73	5.39 ± 0.73	8.27 ± 0.91	13.4	23.7	49.8	significantly reduced the colony-forming ability	reduced live cell counts and increased necrotic cells	significantly increased ROS levels dose-dependently	100	2	656	
COc1cc(NC2=C(Cl)C(=O)c3nc(C)ccc3C2=O)cc(OC)c1 [AQQ5]													−95.99
CCOc1ccccc1NC1=C(Cl)C(=O)c2nc(C)ccc2C1=O [AQQ2]	4.17 ± 0.8	6.39 ± 0.8	13.3 ± 1.12							100	3	501	
